Test results published in patent US20190388441A1, “NOVEL PRODRUGS OF MIZORIBINE” (KATHOLIEKE UNIVERSITEIT LEUVEN, priority 2017, published 2019).
Like-named read-outs stand apart in the source and are kept apart here.

Legend:
Balb/c mice = experiment: subacute toxicity assay; format: in vivo; settings: Day 0-14, n = 6
Experimental: Reduction of Toxicity by Combination of Ex19 and MZR Subacute Toxicity Assay
Balb/c mice were treated with MZR at 100 mpk PO or Ex19 at equal molecule dose to MZR from day 0-14.

IL-2 production = experiment: suppression of IL-2 production in anti-CD3 antibody stimulated mice in vivo; set-up: species or system Balb/c mice; settings: Mus musculus; for inhibition at 65 mg/kg: 65 mpk PO; for inhibition at 40 mg/kg: 40 mpk PO; for inhibition at 55 mg/kg: 55 mpk PO; for inhibition at 50 mg/kg: 50 mpk PO; for inhibition at 25 mg/kg: 25 mpk PO
Experimental: Mizoribine prodrug-induced suppression of IL-2 production in anti-CD3 antibody stimulated mice in vivo.
Inbreed Balb/c mice, male, 8-10 week old, were pre-treated with Mycophenolate mofetil (MMF), Mizoribine and Mizoribine prodrugs at the different time intervals before anti-mouse CD3 antibody injection IP (1 μg per mouse). The doses of the prodrugs of examples 19, 40 and 48 were equal to Mizoribine on the bases of molecular weight. Four hours after anti-CD3 antibody stimulation, a volume of 100 μl peripheral blood was taken by eye puncture and serum IL-2 was quantified by FACS-beads technology. Briefly, an aliquot of 10 μl of serum was incubated with anti-mouse IL-2 antibody coated microbeads at 4° C. for 30 min. After washing twice with cold PBS, the beads were incubated with biotin-conjugated anti-mouse IL-2 antibody at 4° C. for 30 min. After washing twice with cold PBS, The beads were incubated with PE-conjugated avidin at 4° C. for 30 min. After washing twice with cold PBS, the samples were analyzed by flow cytometry. Results were expressed as mean of 2 mice in each group.

DBA-1 mice with CIA = experiment: chicken collagen type II induced rheumatoid arthritis (CIA) in DBA-1 mice; format: in vivo; settings: monotherapy at given doses, 30 day-treatment
Source text: Results of example 67 showing disease score in DBA-1 mice with CIA after a 30 day-treatment with the Mizoribine prodrug of example 19 alone and in combination with MMF or Mizoribine.
Example 67: Synergy of the Prodrug of Example 19 with MMF or Mizoribine in Treatment of DBA-1 Mice with Chicken Collagen Type II Induced Rheumatoid Arthritis (CIA)

[1] = test system: heart grafts from Balb/c donors in C57BL/6 recipient mice; experiment: heart allograft survival in mice (heterotopic heart transplantation); format: in vivo
Experimental: Synergy of Mizoribine Prodrugs with FK506 to Prolong Heart Allograft Survival in Mice
Heterotopic hear transplantation was performed by placing heart grafts from Balb/c donors to the neck of C57BL/6 recipient mice using micro-suture technology, in which the aorta and pulmonary artery of the graft were connected to carotid artery and jugular vein, respectively. The function of grafts was monitored by daily inspection and palpation. Rejection was determined by cessation of graft beating and confirmed by histology.

IMPDH (E. coli) = IMPDH (E. coli) (Escherichia coli, UniProt P0ADG7); settings: lower end of the range; cited from earlier work
Sequence of IMPDH (E. coli) (P0ADG7 whole entry): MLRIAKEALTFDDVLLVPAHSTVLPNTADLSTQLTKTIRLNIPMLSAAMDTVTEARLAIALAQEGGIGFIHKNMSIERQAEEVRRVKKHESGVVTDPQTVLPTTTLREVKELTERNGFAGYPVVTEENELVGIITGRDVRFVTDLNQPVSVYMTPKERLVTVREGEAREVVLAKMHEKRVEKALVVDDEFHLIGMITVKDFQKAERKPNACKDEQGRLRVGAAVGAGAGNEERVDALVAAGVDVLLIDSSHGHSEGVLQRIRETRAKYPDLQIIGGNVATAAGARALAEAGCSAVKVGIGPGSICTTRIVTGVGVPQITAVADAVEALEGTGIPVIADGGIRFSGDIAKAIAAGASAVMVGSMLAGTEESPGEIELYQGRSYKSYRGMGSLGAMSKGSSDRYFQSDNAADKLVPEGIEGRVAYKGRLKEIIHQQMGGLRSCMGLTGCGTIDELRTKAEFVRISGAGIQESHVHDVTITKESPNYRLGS

hlMPDH1 = hlMPDH1 (Homo sapiens, UniProt P20839); settings: upper end of the range; cited from earlier work
Sequence of hlMPDH1 (P20839 whole entry): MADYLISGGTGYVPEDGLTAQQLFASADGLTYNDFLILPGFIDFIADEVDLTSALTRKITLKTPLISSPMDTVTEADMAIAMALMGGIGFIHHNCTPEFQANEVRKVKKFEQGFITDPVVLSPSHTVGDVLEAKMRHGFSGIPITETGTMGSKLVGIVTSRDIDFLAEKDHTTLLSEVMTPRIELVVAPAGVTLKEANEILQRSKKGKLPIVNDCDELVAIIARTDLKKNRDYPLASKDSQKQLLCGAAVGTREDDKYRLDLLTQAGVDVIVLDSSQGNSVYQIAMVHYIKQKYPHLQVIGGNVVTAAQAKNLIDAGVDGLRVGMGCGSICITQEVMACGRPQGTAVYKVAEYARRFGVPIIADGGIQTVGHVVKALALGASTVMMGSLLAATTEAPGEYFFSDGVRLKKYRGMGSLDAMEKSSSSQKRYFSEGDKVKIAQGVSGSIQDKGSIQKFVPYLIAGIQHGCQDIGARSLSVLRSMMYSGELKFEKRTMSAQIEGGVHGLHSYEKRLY

[2] = given 1 hour before anti-CD3, mean of 2 mice, read-out: % inhibition of IL-2, 1 hour post administration
[3] = given 4 hours before anti-CD3, mean of 2 mice, read-out: % inhibition of IL-2, 4 hour post administration
[4] = given 8 hours before anti-CD3, mean of 2 mice, read-out: % inhibition of IL-2, 8 hour post administration
[5] = 1 to 8 hours post administration, read-out: inhibition of IL-2, range up to 8 hours post administration

Q: What does the source list for `CC(C)CCOC(=O)C[C@H](NP(=O)(OC[C@H]1O[C@@H](n2cnc(C(N)=O)c2O)[C@H](O)C1O)Oc1ccccc1)C(=O)OCCC(C)C` (stereo partly drawn) [Ex 19, Mizoribine-5′-[phenyl-bis(isoamyl-L-aspartyl)]phosphate]?
A: n° sick animals (Balb/c mice; Ex19 260 mg/kg PO (equal molecule dose to MZR)): 3; % sickness (Balb/c mice; Ex19 260 mg/kg PO): 50%; inhibition at 65 mg/kg (IL-2 production; [2]): 14.7%; inhibition at 65 mg/kg (IL-2 production; [3]): 18.3%; inhibition at 65 mg/kg (IL-2 production; [4]): 17.5%; inhibition at 65 mg/kg (IL-2 production; [5]): 14 to 18%; suppression of disease score (DBA-1 mice with CIA): didn't show notable suppression of disease score

Q: For `CC(C)(C)C(=O)NC(=O)c1ncn([C@@H]2O[C@H](COC(=O)C(C)(C)C)C(O)[C@H]2O)c1O` (stereo partly drawn) [Ex 40, Mizoribine-5′-N-dipivalate], which inhibition at 40 mg/kg (IL-2 production; [2]) is on record?
A: 19.4%

Q: What about the inhibition at 40 mg/kg (IL-2 production; [3]) of the same compound?
A: 64.4%

Q: What about the inhibition at 40 mg/kg (IL-2 production; [4]) of the same compound?
A: 61.3%

Q: What about the “MST (median survival time) ± SD” value ([1]; 83 mpk PO, d 0 to d 14 post transplantation) of the same compound?
A: 11 ± 0.6 days

Q: What about the “MST (median survival time) ± SD” value ([1]; 83 mpk PO, d 0 to d 14 post transplantation, listed as Example 40) of the same compound?
A: 11 ± 0.6 days

Q: And the “MST (median survival time) ± SD” value ([1]; 83 mpk PO, d 0 to d 14 post transplantation, listed as example 40)?
A: 11 ± 0.6 days

Q: What does the source list for `NC(=O)c1ncn(C2OC(COC(=O)[C@@H](N)CC(=O)OCc3ccccc3)C(O)C2O)c1O` (stereo partly drawn) [Ex 48, Mizoribine-5′-(4-benzyl ester-L-aspartyl) ester]?
A: inhibition at 55 mg/kg (IL-2 production; [2]): 77%; inhibition at 55 mg/kg (IL-2 production; [3]): 32.7%; inhibition at 55 mg/kg (IL-2 production; [4]): 27.7%; inhibition at 55 mg/kg (IL-2 production; [5]): 27.7 to 77%; MST (median survival time) ± SD ([1]; 112 mpk PO, d 0 to d 14 post transplantation): 11 ± 1.0 days; MST (median survival time) ± SD ([1]; 112 mpk PO, d 0 to d 14 post transplantation, listed as example 48): 11 ± 1.0 days

Q: With `C=CC[C@@H]1/C=C(\C)C[C@H](C)C[C@H](OC)[C@H]2O[C@@](O)(C(=O)C(=O)N3CCCC[C@H]3C(=O)O[C@H](/C(C)=C/[C@@H]3CC[C@@H](O)[C@H](OC)C3)[C@H](C)[C@@H](O)CC1=O)[C@H](C)C[C@@H]2OC` [FK506, tacrolimus] as the compound, how does the “MST (median survival time) ± SD” value ([1]; FK506 4 mpk IM, d 0 to d 14 post transplantation, 4 mg/kg) read?
A: 8 ± 1.3 days

Q: For `COc1c(C)c2c(c(O)c1C/C=C(\C)CCC(=O)OCCN1CCOCC1)C(=O)OC2` [MMF, Mycophenolate mofetil, reference compound], which inhibition at 50 mg/kg (IL-2 production; given 1 hour before anti-CD3, serum IL-2 4 h after stimulation, mean of 2 mice, read-out: % inhibition of IL-2, 1 hour post administration) is on record?
A: 81.7%

Q: And the inhibition at 50 mg/kg (IL-2 production; [3])?
A: 52.3%

Q: And the inhibition at 50 mg/kg (IL-2 production; [4])?
A: 3.4%

Q: And the “suppression of disease score” value (DBA-1 mice with CIA)?
A: didn't show notable suppression of disease score

Q: And the “MST (median survival time) ± SD” value ([1]; MMF 100 mpk PO, d 0 to d 14)?
A: 11 ± 1.2 days

Q: Which inhibition at 25 mg/kg (IL-2 production; [2]) does the source give for `NC(=O)c1ncn([C@@H]2O[C@H](CO)[C@@H](O)[C@H]2O)c1O` [Mizoribine] here?
A: 55.6%

Q: What about the inhibition at 25 mg/kg (IL-2 production; [3]) of the same compound?
A: -8.6%

Q: What about the inhibition at 25 mg/kg (IL-2 production; [4]) of the same compound?
A: -7.3%

Q: And the “suppression of disease score” value (DBA-1 mice with CIA)?
A: didn't show notable suppression of disease score

Q: What about the “MST (median survival time) ± SD” value ([1]; MZR 50 mpk PO, d 0 to d 14) of the same compound?
A: 8 ± 1.2 days

Q: And the “MST (median survival time) ± SD” value ([1]; MZR 50 mpk PO, d 0 to d 14, listed as MZR)?
A: 8 ± 1.2 days

Q: For `NC(=O)c1ncn([C@@H]2O[C@H](COP(=O)(O)O)[C@@H](O)[C@H]2O)c1O` [mizoribine-5′-monophosphate], which Ki (IMPDH (E. coli)) is on record?
A: 0.5 nM

Q: What about the Ki (hlMPDH1) of the same compound?
A: 8 nM
